Reference: BigSolDB 2.1

Structure (SMILES): C[C@H]1[C@H](C)CC[C@]2(C(=O)O)CC[C@]3(C)C(=CC[C@@H]4[C@@]5(C)CC[C@H](O)C(C)(C)[C@@H]5CC[C@]43C)[C@H]12
- solubility (mole fraction) (in ethanol, 293.6 K): 0.000514
- solubility (mole fraction) (in ethanol, 300.1 K): 0.000766
- solubility (mole fraction) (in ethanol, 305.2 K): 0.000735
- solubility (mole fraction) (in ethanol, 310 K): 0.000761
- solubility (mole fraction) (in ethanol, 320.1 K): 0.00105
- solubility (mole fraction) (in ethanol, 323.2 K): 0.00105
- solubility (mole fraction) (in ethanol, 329.7 K): 0.00116
- solubility (mole fraction) (in ethyl acetate, 293.6 K): 0.000777
- solubility (mole fraction) (in ethyl acetate, 300.1 K): 0.000771
- solubility (mole fraction) (in ethyl acetate, 305.2 K): 0.00101
- solubility (mole fraction) (in ethyl acetate, 310 K): 0.00113
- solubility (mole fraction) (in ethyl acetate, 320.1 K): 0.00155
- solubility (mole fraction) (in ethyl acetate, 323.2 K): 0.00162
- solubility (mole fraction) (in ethyl acetate, 329.7 K): 0.00186
- solubility (mole fraction) (in isopropanol, 293.6 K): 0.00144
- solubility (mole fraction) (in isopropanol, 300.1 K): 0.00181
- solubility (mole fraction) (in isopropanol, 305.2 K): 0.00197
- solubility (mole fraction) (in isopropanol, 310 K): 0.00213
- solubility (mole fraction) (in isopropanol, 320.1 K): 0.00273
- solubility (mole fraction) (in isopropanol, 323.2 K): 0.00275
- solubility (mole fraction) (in isopropanol, 329.7 K): 0.00295
- solubility (mole fraction) (in methanol, 293.6 K): 0.000723
- solubility (mole fraction) (in methanol, 300.1 K): 0.000851
- solubility (mole fraction) (in methanol, 305.2 K): 0.000931
- solubility (mole fraction) (in methanol, 310 K): 0.00102
- solubility (mole fraction) (in methanol, 320.1 K): 0.00133
- solubility (mole fraction) (in methanol, 323.2 K): 0.00132
- solubility (mole fraction) (in methanol, 329.7 K): 0.00146
